Reference: patent US20240059691A1 (KALVISTA PHARMACEUTICALS LIMITED, priority 2020, published 2024)

How the values were obtained:
Assay type in all cases: biochemical
Human Factor XIIa = Human Factor XIIa (Homo sapiens (Human), UniProt P00748); assay: Determination of FXIIa inhibition (fluorogenic substrate H-DPro-Phe-Arg-AFC, IC50 assay); settings: substrate H-DPro-Phe-Arg-AFC at Km, 25° C.; for IC50: class scale A-G
Summary of the method: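 IC50 derived from % remaining activity, taken as the linear fluorescence rate over a 5 min read at 25° C. Substrate H-DPro-Phe-Arg-AFC was used at its Km (Michaelis-Menten) with human FXIIa and serial compound dilutions, 25° C.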

KLK1 = KLK1 (Homo sapiens (Human), UniProt P06870); assay: Determination of related protease inhibition: KLK1 (fluorogenic substrate at Km); settings: 25° C.
Experimental: (§1) Determination of Related Protease Inhibition
(§2) In vitro inhibition of related proteases was determined using an ([…] assay based on standard literature methods (see e.g. Shori et al., Biochem. Pharmacol., 1992, 43, 1209; Bouckaert et al., European Journal of Medicinal Chemistry 110 (2016) 181). Human serine protease enzymes Plasma Kallikrein, KLK1, FXa, Plasmin, Thrombin and Trypsin were assayed for enzymatic activity using an appropriate fluorogenic substrate at Km concentration, FXIa at fixed substrate concentration of 100 μM, and various concentrations of the test compound. Protease activity was measured by monitoring the accumulation of liberated fluorescence from the substrate over […]. The linear rate of fluorescence increase per minute was expressed as percentage (%) activity. IC50 values were calculated as the concentration of inhibitor giving 50% inhibition of the uninhibited enzyme activity (100%).

FXa = FXa (Homo sapiens (Human), UniProt P00742); assay: Determination of related protease inhibition: FXa (fluorogenic substrate at Km); settings: 25° C.
Experimental: as §1, §2

Plasma Kallikrein = Plasma Kallikrein (Homo sapiens (Human), UniProt P03952); assay: Determination of related protease inhibition: Plasma Kallikrein (fluorogenic substrate at Km); settings: 25° C., read-out: IC50 (human PKal)
Summary of the method: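 IC50 derived as the concentration halving uninhibited activity, from linear fluorescence increase per minute monitored 5 min at 25 °C. Each human protease was run with its fluorogenic substrate at Km concentration across a range of test compound concentrations.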

Chain of FXa (P00742 235-488): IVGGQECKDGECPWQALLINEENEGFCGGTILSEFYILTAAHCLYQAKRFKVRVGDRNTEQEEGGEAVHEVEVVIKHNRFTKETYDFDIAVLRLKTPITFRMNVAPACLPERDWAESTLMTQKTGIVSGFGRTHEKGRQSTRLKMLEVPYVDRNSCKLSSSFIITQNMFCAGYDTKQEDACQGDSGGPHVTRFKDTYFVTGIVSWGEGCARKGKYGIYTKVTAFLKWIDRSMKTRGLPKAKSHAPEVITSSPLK
Chain of FXa (P00742 41-179 partner): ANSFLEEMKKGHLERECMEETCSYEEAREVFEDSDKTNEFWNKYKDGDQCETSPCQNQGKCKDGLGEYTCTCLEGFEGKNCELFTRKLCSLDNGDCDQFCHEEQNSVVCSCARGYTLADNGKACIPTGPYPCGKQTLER
Chain of KLK1 (P06870 25-262): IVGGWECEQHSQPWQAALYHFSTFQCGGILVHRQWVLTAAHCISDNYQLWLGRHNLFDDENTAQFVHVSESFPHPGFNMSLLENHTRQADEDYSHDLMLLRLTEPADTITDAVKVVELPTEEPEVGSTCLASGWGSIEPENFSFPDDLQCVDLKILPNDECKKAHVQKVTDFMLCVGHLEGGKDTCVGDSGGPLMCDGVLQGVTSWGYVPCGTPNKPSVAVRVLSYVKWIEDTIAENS
Chain of Human Factor XIIa (P00748 373-615): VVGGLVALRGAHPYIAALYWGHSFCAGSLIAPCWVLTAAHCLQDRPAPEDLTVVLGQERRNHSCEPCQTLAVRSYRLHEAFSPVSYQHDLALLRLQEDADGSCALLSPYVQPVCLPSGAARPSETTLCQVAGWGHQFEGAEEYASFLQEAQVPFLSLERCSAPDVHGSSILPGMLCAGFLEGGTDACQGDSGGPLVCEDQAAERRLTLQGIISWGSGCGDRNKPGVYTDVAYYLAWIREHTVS
Chain of Plasma Kallikrein (P03952 391-638): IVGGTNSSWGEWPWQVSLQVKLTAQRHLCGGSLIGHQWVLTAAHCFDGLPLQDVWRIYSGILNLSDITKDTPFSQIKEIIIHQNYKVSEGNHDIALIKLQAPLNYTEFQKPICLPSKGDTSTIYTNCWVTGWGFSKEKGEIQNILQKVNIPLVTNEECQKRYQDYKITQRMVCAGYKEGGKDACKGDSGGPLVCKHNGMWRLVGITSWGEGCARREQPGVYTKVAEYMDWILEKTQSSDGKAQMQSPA
Chain of Plasma Kallikrein (P03952 20-390 partner): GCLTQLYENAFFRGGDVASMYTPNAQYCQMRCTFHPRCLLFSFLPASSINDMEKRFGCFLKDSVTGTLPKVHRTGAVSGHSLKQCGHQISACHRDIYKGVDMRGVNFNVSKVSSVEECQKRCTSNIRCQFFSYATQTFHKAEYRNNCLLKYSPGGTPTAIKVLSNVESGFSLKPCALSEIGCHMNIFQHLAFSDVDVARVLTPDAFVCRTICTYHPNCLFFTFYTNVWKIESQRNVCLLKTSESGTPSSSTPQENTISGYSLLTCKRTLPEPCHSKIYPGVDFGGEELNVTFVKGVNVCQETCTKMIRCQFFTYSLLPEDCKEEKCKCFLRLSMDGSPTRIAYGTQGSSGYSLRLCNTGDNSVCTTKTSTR

Compound	IC50 (Human Factor XIIa) [µM]	IC50 (KLK1) [µM]	IC50 (FXa) [µM]	IC50 (Plasma Kallikrein) [µM]	Human FXIIa IC50 (nM): test compounds that did not achieve 50% inhibition (Human Factor XIIa; class scale H1-H3 for compounds that did not achieve 50% inhibition)
CC1c2nnc(C(F)(F)F)n2CCN1c1ccc(CNc2cccc3c(N)nccc23)cn1 (stereo not drawn) [Example 1285, N5-((6-(8-methyl-3-(trifluoromethyl)-5,6-dihydro-[1,2,4]triazolo[4,3-a]pyrazin-7(8H)-yl)pyridin-3-yl)methyl)isoquinoline-1,5-diamine]	0.3 to 1	3 to 10	> 40	–	–
Nc1nccc2c(N3CCCC3c3ccc(N4CCn5c(nnc5C(F)(F)F)C4)nc3)cccc12 (single isomer, unassigned) [Example 10003, (S*)-5-(2-(6-(3-(trifluoromethyl)-5,6-dihydro-[1,2,4]triazolo[4,3-a]pyrazin-7(8H)-yl)pyridin-3-yl)pyrrolidin-1-yl)isoquinolin-1-amine]	3 to 10	> 40	> 40	–	–
Cc1cc(CNc2cccc3c(N)nccc23)cnc1N1CCn2c(nnc2C(F)(F)F)C1 [Example 1302, N5-((5-methyl-6-(3-(trifluoromethyl)-5,6-dihydro-[1,2,4]triazolo[4,3-a]pyrazin-7(8H)-yl)pyridin-3-yl)methyl)isoquinoline-1,5-diamine]	10 to 40	1 to 3	> 40	10 to 40	–
N#Cc1cc(NCc2ccc(N3CCn4c(nnc4C(F)(F)F)C3)nc2)c2cc(Cl)[nH]c2n1 [Example 1292]	–	> 40	> 40	–	H1 (>20% inhibition @ 40 μM)
CC1CN(c2ccc(CNc3cccc4c(N)nccc34)cn2)Cc2nnc(C(F)(F)F)n21 (stereo not drawn) [Example 1287, N5-((6-(5-methyl-3-(trifluoromethyl)-5,6-dihydro-[1,2,4]triazolo[4,3-a]pyrazin-7(8H)-yl)pyridin-3-yl)methyl)isoquinoline-1,5-diamine]	1 to 3	1 to 3	> 40	–	–
CC1CN(c2ccc(CNc3cccc4c(N)nccc34)cn2)Cc2nnc(C(F)(F)F)n21 (single isomer, unassigned) [Example 1297, (S*)-N5-((6-(5-methyl-3-(trifluoromethyl)-5,6-dihydro-[1,2,4]triazolo[4,3-a]pyrazin-7(8H)-yl)pyridin-3-yl)methyl)isoquinoline-1,5-diamine]	1 to 3	1 to 3	> 40	> 40	–
Nc1nccc2c(N3CCCC3c3ccc(N4CCn5c(nnc5C(F)(F)F)C4)nc3)cccc12 (racemic) [Example 10002, 5-(2-(6-(3-(Trifluoromethyl)-5,6-dihydro-[1,2,4]triazolo[4,3-a]pyrazin-7(8H)-yl)pyridin-3-yl)pyrrolidin-1-yl)isoquinolin-1-amine]	1 to 3	10 to 40	> 40	–	–
Cc1cc(N2CCn3c(nnc3C(F)(F)F)C2)nc(C)c1CNc1cccc2c(N)nccc12 [Example 9006, N5-((2,4-dimethyl-6-(3-(trifluoromethyl)-5,6-dihydro-[1,2,4]triazolo[4,3-a]pyrazin-7(8H)-yl)pyridin-3-yl)methyl)isoquinoline-1,5-diamine]	0.1 to 0.3	> 40	> 40	> 40	–
Cc1cc(NCc2ccc(N3CCn4c(nnc4C(F)(F)F)C3)nc2)c2cc(Cl)[nH]c2n1 [Example 1293, 2-chloro-6-methyl-N-((6-(3-(trifluoromethyl)-5,6-dihydro-[1,2,4]triazolo[4,3-a]pyrazin-7(8H)-yl)pyridin-3-yl)methyl)-1H-pyrrolo[2,3-b]pyridin-4-amine]	–	> 40	> 40	–	–
CC(C)(O)c1cn(-c2ccc(CNc3cccc4c(N)nccc34)cn2)nn1 [Example 1291, 2-(1-(5-(((1-aminoisoquinolin-5-yl)amino)methyl)pyridin-2-yl)-1H-1,2,3-triazol-4-yl)propan-2-ol]	3 to 10	10 to 40	> 40	–	–
Nc1nccc2c(NCc3cnc(N4CCn5c(nnc5C(F)(F)F)C4)cc3Cl)cccc12 [Example 1299, N5-((4-Chloro-6-(3-(trifluoromethyl)-5,6-dihydro-[1,2,4]triazolo[4,3-a]pyrazin-7(8H)-yl)pyridin-3-yl)methyl)isoquinoline-1,5-diamine]	0.01 to 0.1	3 to 10	> 40	> 40	–
CC(C)Oc1cc(NCc2ccc(N3CCn4c(nnc4C(F)(F)F)C3)nc2)ccn1 [Example 1290, 2-isopropoxy-N-((6-(3-(trifluoromethyl)-5,6-dihydro-[1,2,4]triazolo[4,3-a]pyrazin-7(8H)-yl)pyridin-3-yl)methyl)pyridin-4-amine]	–	> 40	> 40	–	–
Nc1nccc2c(NCc3ccc(N4CCn5c(nnc5C(F)(F)F)C4)cn3)cccc12 [Example 9001, N5-((5-(3-(trifluoromethyl)-5,6-dihydro-[1,2,4]triazolo[4,3-a]pyrazin-7(8H)-yl)pyridin-2-yl)methyl)isoquinoline-1,5-diamine]	0.1 to 0.3	3 to 10	> 40	> 40	–
CC1CN(c2ccc(CNc3cccc4c(N)nccc34)cn2)Cc2nnc(C(F)(F)F)n21 (single isomer, unassigned) [Example 1296, (R*)-N5-((6-(5-methyl-3-(trifluoromethyl)-5,6-dihydro-[1,2,4]triazolo[4,3-a]pyrazin-7(8H)-yl)468yridine-3-yl)methyl)isoquinoline-1,5-diamine]	1 to 3	3 to 10	> 40	10 to 40	–
Nc1nccc2c(NCc3cnc(N4CCn5c(nnc5C(F)(F)F)C4)cc3C(F)(F)F)cccc12 [Example 1301, N5-((4-(trifluoromethyl)-6-(3-(trifluoromethyl)-5,6-dihydro-[1,2,4]triazolo[4,3-a]pyrazin-7(8H)-yl)pyridin-3-yl)methyl)isoquinoline-1,5-diamine]	0.1 to 0.3	3 to 10	> 40	> 40	–
Cc1nc(N2CCn3c(nnc3C(F)(F)F)C2)ccc1CNc1cccc2c(N)nccc12 [Example 1284, N5-((2-methyl-6-(3-(trifluoromethyl)-5,6-dihydro-[1,2,4]triazolo[4,3-a]pyrazin-7(8H)-yl)pyridin-3-yl)methyl)isoquinoline-1,5-diamine]	0.3 to 1	3 to 10	> 40	–	–
Nc1nccc2c(N3CCCC3c3ccc(N4CCn5c(nnc5C(F)(F)F)C4)nc3)cccc12 (single isomer, unassigned) [Example 10004, (R*)-5-(2-(6-(3-(trifluoromethyl)-5,6-dihydro-[1,2,4]triazolo[4,3-a]pyrazin-7(8H)-yl)pyridin-3-yl)pyrrolidin-1-yl)isoquinolin-1-amine]	0.3 to 1	10 to 40	> 40	–	–
Nc1nccc2c(NCc3cnc(N4CCn5c(nnc5C(F)(F)F)C4)nc3)cccc12 [Example 9003, N5-((2-(3-(trifluoromethyl)-5,6-dihydro-[1,2,4]triazolo[4,3-a]pyrazin-7(8H)-yl)pyrimidin-5-yl)methyl)isoquinoline-1,5-diamine]	1 to 3	3 to 10	–	–	–
Cn1ncc2c1CCN(c1ccc(CNc3cccc4c(N)nccc34)cn1)C2 [Example 1286, N5-((6-(1-methyl-1,4,6,7-tetrahydro-5H-pyrazolo[4,3-c]pyridin-5-yl)pyridin-3-yl)methyl)isoquinoline-1,5-diamine]	0.3 to 1	1 to 3	> 40	–	–
FC(F)(F)c1nnc2n1CCN(c1ccc(CNc3cnc4[nH]cc(Cl)c4c3)cn1)C2 [Example 1289, 3-chloro-N-((6-(3-(trifluoromethyl)-5,6-dihydro-[1,2,4]triazolo[4,3-a]pyrazin-7(8H)-yl)pyridin-3-yl)methyl)-1H-pyrrolo[2,3-b]pyridin-5-amine]	–	> 40	> 40	–	–
CC(C)c1cc(N2CCn3c(nnc3C(F)(F)F)C2)ncc1CNc1cccc2c(N)nccc12 [Example 1308, N5-((4-isopropyl-6-(3-(trifluoromethyl)-5,6-dihydro-[1,2,4]triazolo[4,3-a]pyrazin-7(8H)-yl)pyridin-3-yl)methyl)isoquinoline-1,5-diamine]	1 to 3	3 to 10	–	–	–
Nc1nccc2c(NCc3cnc(N4CCn5c(nnc5C(F)(F)F)C4)cn3)cccc12 [Example 9002, N5-((5-(3-(trifluoromethyl)-5,6-dihydro-[1,2,4]triazolo[4,3-a]pyrazin-7(8H)-yl)pyrazin-2-yl)methyl)isoquinoline-1,5-diamine]	0.3 to 1	3 to 10	–	–	–
FC(F)(F)c1nnc2n1CCN(c1ccc(CNc3ccn4ccnc4c3)cn1)C2 [Example 1288, N-((6-(3-(trifluoromethyl)-5,6-dihydro-[1,2,4]triazolo[4,3-a]pyrazin-7(8H)-yl)pyridin-3-yl)methyl)imidazo[1,2-a]pyridin-7-amine]	–	> 100	> 40	–	–
